Earlier results as cited in article PMC6861001 (Chemistry (Weinheim an der Bergstrasse, Germany), 2019).

## N[C@@H](C[SeH])C(=O)O [Sec, selenocysteine]
  pKa of selenol group: ~5.2
  reduction potential E0: −386 mV
